# Assay results from patent publication US20100204203A1, “Chemical Compounds 637: Pyridopyrimidinediones as PDE4 Inhibitors” (priority 2007, published 2010).
# Target: recombinant Human Phosphodiesterase B2 (PDE4B2) (Homo sapiens, UniProt Q07343)
# Assay: Human Phosphodiesterase B2 Radiometric Assay (yttrium silicate SPA beads, [3H]cyclic AMP)
# Type: biochemical
# Conditions: recombinant human PDE4B2, radiometric SPA assay, 8 nM [3H]cyclic AMP; read-out: PDE4B2 pIC50 (converted)
# Outline: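 Read-out is scintillation proximity: yttrium silicate beads (with 18 mM ZnSO4, added to stop the reaction) bind 5′AMP formed from 8 nM [3H]cAMP over 20 min. Beforehand, compound and 0.1 mg/mL enzyme were preincubated 30 min at 30 °C in pH 7.5 HEPES buffer with MgCl2, EGTA and Brij 35; pIC50 values were curve-fitted.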
# recombinant Human Phosphodiesterase B2 (PDE4B2), sequence (Q07343 1-564 isoform Q07343-2): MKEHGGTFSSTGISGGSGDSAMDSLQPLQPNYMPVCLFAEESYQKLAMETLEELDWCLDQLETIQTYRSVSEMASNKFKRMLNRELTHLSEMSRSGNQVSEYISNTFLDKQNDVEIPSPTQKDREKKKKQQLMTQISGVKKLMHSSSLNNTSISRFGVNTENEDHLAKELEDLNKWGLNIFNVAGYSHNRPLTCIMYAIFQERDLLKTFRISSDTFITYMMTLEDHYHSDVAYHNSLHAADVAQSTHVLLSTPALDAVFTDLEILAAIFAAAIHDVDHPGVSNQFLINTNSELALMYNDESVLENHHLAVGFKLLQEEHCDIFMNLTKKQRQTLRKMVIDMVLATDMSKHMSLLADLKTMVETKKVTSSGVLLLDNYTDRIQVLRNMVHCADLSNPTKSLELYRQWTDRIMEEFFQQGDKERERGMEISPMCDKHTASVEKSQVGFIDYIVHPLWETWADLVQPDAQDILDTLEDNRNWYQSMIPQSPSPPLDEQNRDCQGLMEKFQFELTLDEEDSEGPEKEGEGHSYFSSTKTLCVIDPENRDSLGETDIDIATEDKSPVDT
row,SMILES,IC50 [nM]
1,"O=C(N[C@H]1CC[C@@H](n2c(=O)c3cc(F)cnc3n(-c3cccc(Sc4ccccc4)c3)c2=O)CC1)c1cn2cc(F)ccc2n1 [Example 44, 6-fluoro-N-{cis-4-[6-fluoro-2,4-dioxo-1-[3-(phenylthio)phenyl]-1,4-dihydropyrido[2,3-d]pyrimidin-3(2H)-yl]cyclohexyl}imidazo[1,2-a]pyridine-2-carboxamide]",0.0631
2,"CN(C)Cc1ccc(-c2cccc(-n3c(=O)n([C@H]4CC[C@@H](NC(=O)c5cn6cc(F)ccc6n5)CC4)c(=O)c4cc(F)cnc43)c2)cc1 [Example 12, N-{cis-4-[1-{4′-[(dimethylamino)methyl]biphenyl-3-yl}-6-fluoro-2,4-dioxo-1,4-dihydropyrido[2,3-d]pyrimidin-3(2H)-yl]cyclohexyl}-6-fluoroimidazo[1,2-a]pyridine-2-carboxamide]",0.1
3,"COCCN(C)Cc1ccc(-c2cccc(-n3c(=O)n([C@H]4CC[C@@H](NC(=O)c5cc(C)n(C)n5)CC4)c(=O)c4cc(F)cnc43)c2)cc1 [Example 217, N-{cis-4-[6-fluoro-1-(4′-{[(2-methoxyethyl)(methyl)amino]methyl}biphenyl-3-yl)-2,4-dioxo-1,4-dihydropyrido[2,3-d]pyrimidin-3(2H)-yl]cyclohexyl}-1,5-dimethyl-1H-pyrazole-3-carboxamide]",0.0316
4,"Cc1nc(C(=O)N[C@H]2CC[C@@H](n3c(=O)c4cc(F)cnc4n(-c4cccc(-c5ccc(CN6CCCN(C)CC6)cc5)c4)c3=O)CC2)cs1 [Example 309, N-{cis-4-[6-fluoro-1-{4′-[(4-methyl-1,4-diazepan-1-yl)methyl]biphenyl-3-yl}-2,4-dioxo-1,4-dihydropyrido[2,3-d]pyrimidin-3(2H)-yl]cyclohexyl}-2-methyl-1,3-thiazole-4-carboxamide]",0.1
5,"CN(Cc1cn2cc(F)ccc2n1)[C@H]1CC[C@@H](n2c(=O)c3cc(F)cnc3n(-c3cccc(-c4ccc(O)cc4CN4CCOCC4)c3)c2=O)CC1 [Example 286, 6-fluoro-3-{cis-4-[[(6-fluoroimidazo[1,2-a]pyridin-2-yl)methyl](methyl)amino]cyclohexyl}-1-[4′-hydroxy-2′-(morpholin-4-ylmethyl)biphenyl-3-yl]pyrido[2,3-d]pyrimidine-2,4(1H,3H)-dione]",2
6,"CN(C)C1(C(=O)N[C@H]2CC[C@@H](n3c(=O)c4cc(F)cnc4n(-c4cccc(-c5ccc(CN6CCCCC6)cc5)c4)c3=O)CC2)CC1 [Example 125, 1-(dimethylamino)-N-{cis-4-[6-fluoro-2,4-dioxo-1-[4′-(piperidin-1-ylmethyl)biphenyl-3-yl]-1,4-dihydropyrido[2,3-d]pyrimidin-3(2H)-yl]cyclohexyl}cyclopropane-carboxamide]",0.158
7,"O=C(N[C@H]1CC[C@@H](n2c(=O)c3cc(F)cnc3n(-c3ccc4c(cnn4Cc4ccccc4)c3)c2=O)CC1)c1cn2cc(F)ccc2n1 [Example 39, N-{cis-4-[1-(1-benzyl-1H-indazol-5-yl)-6-fluoro-2,4-dioxo-1,4-dihydropyrido[2,3-d]pyrimidin-3 (2H)-yl]cyclohexyl}-6-fluoroimidazo[1,2-a]pyridine-2-carboxamide]",10
8,"CC(=O)N1CCN(Cc2ccc(-c3cccc(-n4c(=O)n([C@H]5CC[C@@H](NC(=O)c6cn7c(n6)CCCC7)CC5)c(=O)c5cc(F)cnc54)c3)cc2)CC1 [Example 218, N-{cis-4-[1-{4′-[(4-acetylpiperazin-1-yl)methyl]biphenyl-3-yl}-6-fluoro-2,4-dioxo-1,4-dihydropyrido[2,3-d]pyrimidin-3(2H)-yl]cyclohexyl}-5,6,7,8-tetrahydroimidazo[1,2-a]pyridine-2-carboxamide]",0.00631
9,"C[C@@H]1CN(Cc2ccc(-c3cccc(-n4c(=O)n([C@H]5CC[C@@H](NC(=O)C6(N(C)C)CC6)CC5)c(=O)c5cc(F)cnc54)c3)cc2)C[C@H](C)O1 [Example 209, 1-(dimethylamino)-N-{cis-4-[1-(4′-{[(2R,6S)-2,6-dimethylmorpholin-4-yl]methyl}biphenyl-3-yl)-6-fluoro-2,4-dioxo-1,4-dihydropyrido[2,3-d]pyrimidin-3(2H)-yl]cyclohexyl} cyclopropanecarboxamide]",0.00631
10,"Cc1ccc(-c2cccc(-n3c(=O)n([C@H]4CC[C@@H](N)CC4)c(=O)c4cc(F)cnc43)c2)cc1 [Example 47, 3-(cis-4-aminocyclohexyl)-6-fluoro-1-(4′-methylbiphenyl-3-yl)pyrido[2,3-d]pyrimidine-2,4(1H,3H)-dione]",2
11,"C[C@H](O)CN(C)Cc1cc(O)ccc1-c1cccc(-n2c(=O)n([C@H]3CC[C@@H](NCc4cn5cc(F)ccc5n4)CC3)c(=O)c3cc(F)cnc32)c1 (relative stereo) [Example 318, 6-fluoro-3-(cis-4-{[(6-fluoroimidazo[1,2-a]pyridin-2-yl)methyl]amino}cyclohexyl)-1-(4′-hydroxy-2′-{[[(2S)-2-hydroxypropyl](methyl)amino]methyl}biphenyl-3-yl)pyrido[2,3-d]pyrimidine-2,4(1H,3H)-dione]",2
12,"CCCN1CCN(Cc2ccc(-c3cccc(-n4c(=O)n([C@H]5CC[C@@H](NC(=O)c6cn7c(n6)CCCC7)CC5)c(=O)c5cc(F)cnc54)c3)cc2)CC1 [Example 227, N-{cis-4-[6-fluoro-2,4-dioxo-1-{4′-[(4-propylpiperazin-1-yl)methyl]biphenyl-3-yl}-1,4-dihydropyrido[2,3-d]pyrimidin-3(2H)-yl]cyclohexyl}-5,6,7,8-tetrahydroimidazo[1,2-a]pyridine-2-carboxamide]",0.00794
13,"O=C(N[C@H]1CC[C@@H](n2c(=O)c3cc(F)cnc3n(-c3cccc(-c4ccc(CN5CCCNCC5)cc4)c3)c2=O)CC1)c1cc2ccccc2cn1 [Example 353, N-{cis-4-[1-[4′-(1,4-diazepan-1-ylmethyl)biphenyl-3-yl]-6-fluoro-2,4-dioxo-1,4-dihydropyrido[2,3-d]pyrimidin-3(2H)-yl]cyclohexyl} isoquinoline-3-carboxamide]",0.0316
14,"O=c1c2cc(F)cnc2n(-c2cccc(-c3cccc(O)c3CN3CCOCC3)c2)c(=O)n1[C@H]1CC[C@@H](NCc2cn3cc(F)ccc3n2)CC1 [Example 346, 6-Fluoro-3-(cis-4-{[(6-fluoroimidazo[1,2-a]pyridin-2-yl)methyl]amino}cyclohexyl)-1-[3′-hydroxy-2′-(morpholin-4-ylmethyl)biphenyl-3-yl]pyrido[2,3-d]pyrimidine-2,4(1H,3H)-dione]",0.126
15,"CC(C)(C)OC(=O)NCc1ccc(-c2cccc(-n3c(=O)n([C@H]4CC[C@@H](NC(=O)c5cn6cc(F)ccc6n5)CC4)c(=O)c4cc(F)cnc43)c2)cc1 [Example 21, tert-butyl ({3′-[6-fluoro-3-(cis-4-{[(6-fluoroimidazo[1,2-a]pyridin-2-yl)carbonyl]amino}cyclohexyl)-2,4-dioxo-3,4-dihydropyrido[2,3-d]pyrimidin-1(2H)-yl]biphenyl-4-yl}methyl)carbamate.]",0.0501
16,CC(C)(C)OC(=O)N[C@H]1CC[C@@H](n2c(=O)c3cc(F)cnc3n(-c3cccc(-c4ccccc4CN4CCOCC4)c3)c2=O)CC1 [Example 45],0.316
17,"CN(C)Cc1cc(O)ccc1-c1cccc(-n2c(=O)n([C@H]3CC[C@@H](NC(=O)c4cn5cc(F)ccc5n4)CC3)c(=O)c3cc(F)cnc32)c1 [Example 104, N-{cis-4-[1-{2′-[(dimethylamino)methyl]-4′-hydroxybiphenyl-3-yl}-6-fluoro-2,4-dioxo-1,4-dihydropyrido[2,3-d]pyrimidin-3(2H)-yl]cyclohexyl}-6-fluoroimidazo[1,2-a]pyridine-2-carboxamide]",0.00316
18,"Cc1cccc2nc(C(=O)N[C@H]3CC[C@@H](n4c(=O)c5cc(F)cnc5n(-c5cccc(-c6ccc(CN7CCNCC7)cc6)c5)c4=O)CC3)cn12 [Example 111, N-{cis-4-[6-fluoro-2,4-dioxo-1-[4′-(piperazin-1-ylmethyl)biphenyl-3-yl]-1,4-dihydropyrido[2,3-d]pyrimidin-3(2H)-yl]cyclohexyl}-5-methylimidazo[1,2-a]pyridine-2-carboxamide]",0.0126
19,"CNCCOc1ccc(-c2cccc(-n3c(=O)n([C@H]4CC[C@@H](NC(=O)c5cn6cc(F)ccc6n5)CC4)c(=O)c4cc(F)cnc43)c2)cc1 [Example 77, 6-fluoro-N-{cis-4-[6-fluoro-1-{4′-[2-(methylamino)ethoxy]biphenyl-3-yl}-2,4-dioxo-1,4-dihydropyrido[2,3-d]pyrimidin-3(2H)-yl]cyclohexyl}imidazo[1,2-c]pyridine-2-carboxamide]",0.0251
20,"Cc1nc(C(=O)N[C@H]2CC[C@@H](n3c(=O)c4cc(F)cnc4n(-c4cccc(-c5ccc(CN6C[C@@H](C)N[C@@H](C)C6)cc5)c4)c3=O)CC2)cs1 [Example 301, N-{cis-4-[1-(4′-{[(3R,5S)-3,5-dimethylpiperazin-1-yl]methyl}biphenyl-3-yl)-6-fluoro-2,4-dioxo-1,4-dihydropyrido[2,3-d]pyrimidin-3(2H)-yl]cyclohexyl}-2-methyl-1,3-thiazole-4-carboxamide]",0.0398
21,"Cc1cc(C(=O)N[C@H]2CC[C@@H](n3c(=O)c4cc(F)cnc4n(-c4cccc(-c5ccc(CN(C)C(C)(C)C)cc5)c4)c3=O)CC2)nn1C [Example 131, N-{cis-4-[1-(4′-{[tert-butyl(methyl)amino]methyl}biphenyl-3-yl)-6-fluoro-2,4-dioxo-1,4-dihydropyrido[2,3-d]pyrimidin-3(2H)-yl]cyclohexyl}-1,5-dimethyl-1H-pyrazole-3-carboxamide]",0.126
22,"O=C(N[C@H]1CC[C@@H](n2c(=O)c3cc(F)cnc3n(-c3cccc(-c4ccc(CN5CCCNCC5)cc4)c3)c2=O)CC1)c1ccc2ccccc2n1 [Example 350, N-{cis-4-[1-[4′-(1,4-diazepan-1-ylmethyl)biphenyl-3-yl]-6-fluoro-2,4-dioxo-1,4-dihydropyrido[2,3-d]pyrimidin-3(2H)-yl]cyclohexyl} quinoline-2-carboxamide]",0.0158
